Experiments:
[1] = system: Multidrug resistant Pseudomonas aeruginosa; assay: Broth microdilution minimum inhibitory concentration; format: cell-based; settings: compound alone
Procedure: (§1) Antibacterial activity of the synthesized compounds was determined following guidelines established by the Clinical and Laboratory Standards Institute M07-A10 (CLSI 2015), following the broth microdilution method. Briefly, the test articles were dissolved in 100% DMSO, diluted by 2-fold serial titrations in the same vehicle (100% DMSO), for a total of 11 concentrations. A 4 μL aliquot of each dilution was then added to 196 μL of broth medium seeded with the bacterial suspension in wells of a 96 well plate (bacterial count: 2×10^5 to 8×10^5 colony forming units/mL final). The highest test substance concentration was 1028 μg/mL, and the final vehicle concentration was 2 percent. Following incubation, the test plate was visually examined, and each well was scored for growth or complete inhibition of growth. The minimum inhibitory concentration was determined as the lowest concentration were no growth of the bacterial was observed. Each test article was assayed in duplicate.

[2] = system: Vancomycin resistant Enterococcus faecalis; assay: as above; format: cell-based; settings: compound alone
Procedure: as §1

[3] = system: Methicillin resistant Staphylococcus aureus; assay: as above; format: cell-based; settings: compound alone
Procedure: as §1

[4] = system: Carbapenem resistant Acinetobacter baumannii; assay: as above; format: cell-based; settings: compound alone
Procedure: as §1

[5] = system: Carbapenem resistant Klebsiella pneumoniae; assay: as above; format: cell-based; settings: compound alone
Procedure: as §1

P. aeruginosa = assay: Rescue concentration of substituted phenyl azaindole derivatives; format: cell-based; settings: Imipenem fixed at 1 μg/mL
Procedure: (§2) The antibiotic adjuvant activity of the SPazaBIMs were evaluated in combination with representative antibiotics (representing 13 antibiotic classes) against the 19 pathogens strains listed in Table 3. To assess the adjuvant properties of the SP-azaBIM molecules, a modified checkerboard minimum inhibitory concentration assay was used. A fixed concentration of the respective antibiotic (susceptible breakpoint concentration) was mixed with a twofold dilution series of the test SP-azaBIM (FIG. 1). This was to determine the concentration of SP-azaBIM needed potentiate the antibiotic at a clinically susceptible breakpoint concentration. Antibiotic susceptible breakpoint concentrations for the respective bacteria were determined using Clinical Laboratory Standards Institute (CLSI) criteria M100 ED31.
(§3) In this study, only those antibiotics to which the bacterial was classed as resistant were included in the adjuvant assays. In this assay we recorded the rescue concentration of the SP-BIM for a respective antibiotic. The rescue concentration was defined as the concentration of the adjuvant that reduces the minimum inhibitory concentration (MIC) of an antibiotic to the susceptibility breakpoint.
(§4) Immediately prior to testing, the respective antibiotic and SP-azaBIM was dissolved in sterile deionised water at 20× the required test concentration. Each microtiter well was then inoculated with 180 μl of bacterial inoculum of 10^6 CFU/ml in ca-MHB, and 10 μl each if the antibiotic and SP-azaBIM was added to the plates. These plates were then incubated at 35° C. for 24 h under aerobic conditions. A similar method was followed for the fastidious pathogens except that they were cultured in ca-MHB with 5% sheep blood and 5% CO2.
Bacterial growth was visually inspected after the incubation period and the rescue concentration of the test SP-azaBIM was determined as the lowest concentration of the compound needed to reduce bacterial growth by 99.99% at the susceptible breakpoint concentration of the antibiotic. […] If the bacteria can tolerate this concentration in vitro, then the bacteria has an intermediate or absolute resistance toward that antibiotic. […]
(§5) Phenyl azaindole compounds are also tested for their adjuvant activities and the method is shown in Example 39.

K. pneumoniae = assay: as above; format: cell-based; settings: for Rescue concentration, K. pneumoniae Ciprofloxacin (1 μg/mL): Ciprofloxacin fixed at 1 μg/mL; for Rescue concentration, K. pneumoniae Imipenem (1 μg/mL): Imipenem fixed at 1 μg/mL
Procedure: as §2, §3, §4
(§6) Bacterial growth was visually inspected after the incubation period and the rescue concentration of the test SP-azaBIM was determined as the lowest concentration of the compound needed to reduce bacterial growth by 99.99% at the susceptible breakpoint concentration of the antibiotic. For example, CLSI states that Pseudomonas aeruginosa is susceptible to the Imipenem if the MIC is ≤2 μg mL^−1. If the bacteria can tolerate this concentration in vitro, then the bacteria has an intermediate or absolute resistance toward that antibiotic. The goal was to determine the concentration of SP-azaBIM needed to cause P. aeruginosa death at 2 μg mL^−1 of Imipenem therefore restoring susceptibility of the bacteria to toward the antibiotic.
as §5

MRSA = assay: as above; format: cell-based, Staphylococcus aureus; settings: Amoxicillin fixed at 2 μg/mL
Procedure: as §2, §3, §4, §6, §5

For `Nc1ccc(C(O)c2c[nH]c3cnccc23)cc1` (stereo not drawn) [Compound 4NH2-6aza-OH, (4-aminophenyl)(1H-pyrrolo[2,3-c]pyridin-3-yl)methanol], the MIC [1] was less than 1020 µg/mL, the MIC [2] was less than 1020 µg/mL and the MIC [3] was less than 1020 µg/mL. For the same compound, the MIC [4] was less than 1020 µg/mL, the MIC [5] was less than 1020 µg/mL and the “Rescue concentration, P. aeruginosa Imipenem (1 μg/mL)” value (P. aeruginosa) was 128 µg/mL. The “Rescue concentration, K. pneumoniae Ciprofloxacin (1 μg/mL)” value (K. pneumoniae) was 64 µg/mL, the “Rescue concentration, K. pneumoniae Imipenem (1 μg/mL)” value (K. pneumoniae) was 16 µg/mL and the “Rescue concentration, MRSA Amoxicillin (2 μg/mL)” value (shortened to “Rescue concentration … (2 μg/mL)”) (MRSA) was 8 µg/mL.

Compound `O=[N+]([O-])c1cccc(C(O)c2c[nH]c3ncc(Cl)cc23)c1` (stereo not drawn) [3NO2-5Cl-7aza-OH, (5-chloro-1H-pyrrolo[2,3-b]pyridin-3-yl)(3-nitrophenyl)methanol] has an MIC [1] of less than 1020 µg/mL, an MIC [2] of less than 1020 µg/mL and an MIC [3] of less than 1020 µg/mL. The MIC [4] was less than 1020 µg/mL, the MIC [5] was less than 1020 µg/mL and the “Rescue concentration, P. aeruginosa Imipenem (1 μg/mL)” value (P. aeruginosa) was less than 256 µg/mL. For the same compound, the “Rescue concentration, K. pneumoniae Ciprofloxacin (1 μg/mL)” value (K. pneumoniae) was less than 256 µg/mL, the “Rescue concentration, K. pneumoniae Imipenem (1 μg/mL)” value (K. pneumoniae) was less than 256 µg/mL and the “Rescue concentration … (2 μg/mL)” value (MRSA) was less than 256 µg/mL.

With `O=[N+]([O-])c1ccc(C(O)c2c[nH]c3ncc(Cl)cc23)cc1` (stereo not drawn) [4NO2-5Cl-7aza-OH, (5-chloro-1H-pyrrolo[2,3-b]pyridin-3-yl)(4-nitrophenyl)methanol] the MIC [1] was less than 1020 µg/mL, the MIC [2] was less than 1020 µg/mL and the MIC [3] was less than 1020 µg/mL. For the same compound, the MIC [4] was less than 1020 µg/mL, the MIC [5] was less than 1020 µg/mL and the “Rescue concentration, P. aeruginosa Imipenem (1 μg/mL)” value (P. aeruginosa) was less than 256 µg/mL. For the same compound, the “Rescue concentration, K. pneumoniae Ciprofloxacin (1 μg/mL)” value (K. pneumoniae) was less than 256 µg/mL, the “Rescue concentration, K. pneumoniae Imipenem (1 μg/mL)” value (K. pneumoniae) was less than 256 µg/mL and the “Rescue concentration … (2 μg/mL)” value (MRSA) was 32 µg/mL.

`Oc1ccc(C(c2c[nH]c3ncc(Cl)cc23)c2c[nH]c3ncc(Cl)cc23)cc1` [4OH-Bis 5Cl 7aza, 4-(bis(5-chloro-1H-pyrrolo[2,3-b]pyridin-3-yl)methyl)phenol] was tested, and the MIC [1] was less than 1020 µg/mL, the MIC [2] was less than 1020 µg/mL and the MIC [3] was less than 1020 µg/mL. For the same compound, the MIC [4] was less than 1020 µg/mL, the MIC [5] was less than 1020 µg/mL and the “Rescue concentration, P. aeruginosa Imipenem (1 μg/mL)” value (P. aeruginosa) was less than 256 µg/mL. For the same compound, the “Rescue concentration, K. pneumoniae Ciprofloxacin (1 μg/mL)” value (K. pneumoniae) was less than 256 µg/mL, the “Rescue concentration, K. pneumoniae Imipenem (1 μg/mL)” value (K. pneumoniae) was less than 256 µg/mL and the “Rescue concentration … (2 μg/mL)” value (MRSA) was 2 µg/mL.

Compound `Oc1ccc(C(O)c2c[nH]c3ncccc23)cc1` (stereo not drawn) [Compound 4OH-7aza-OH, 4-(hydroxy(1H-pyrrolo[2,3-b]pyridin-3-yl)methyl)phenol] has an MIC [1] of less than 1020 µg/mL, an MIC [2] of less than 1020 µg/mL and an MIC [3] of less than 1020 µg/mL. The MIC [4] was less than 1020 µg/mL, the MIC [5] was less than 1020 µg/mL and the “Rescue concentration, P. aeruginosa Imipenem (1 μg/mL)” value (P. aeruginosa) was less than 256 µg/mL. For the same compound, the “Rescue concentration, K. pneumoniae Ciprofloxacin (1 μg/mL)” value (K. pneumoniae) was less than 256 µg/mL, the “Rescue concentration, K. pneumoniae Imipenem (1 μg/mL)” value (K. pneumoniae) was less than 256 µg/mL and the “Rescue concentration … (2 μg/mL)” value (MRSA) was 128 µg/mL.

Work on `O=[N+]([O-])c1ccc(C(O)c2c[nH]c3ncc(F)cc23)cc1` (stereo not drawn) [4NO2-5Fl-7aza-OH, (5-fluoro-1H-pyrrolo[2,3-b]pyridin-3-yl)(4-nitrophenyl)methanol] yielded an MIC [1] of less than 1020 µg/mL, an MIC [2] of less than 1020 µg/mL and an MIC [3] of less than 1020 µg/mL. The MIC [4] was less than 1020 µg/mL, the MIC [5] was less than 1020 µg/mL and the “Rescue concentration, P. aeruginosa Imipenem (1 μg/mL)” value (P. aeruginosa) was less than 256 µg/mL. The “Rescue concentration, K. pneumoniae Ciprofloxacin (1 μg/mL)” value (K. pneumoniae) was less than 256 µg/mL, the “Rescue concentration, K. pneumoniae Imipenem (1 μg/mL)” value (K. pneumoniae) was less than 256 µg/mL and the “Rescue concentration … (2 μg/mL)” value (MRSA) was 16 µg/mL.

`OC(c1cccc(Br)c1)c1c[nH]c2cnccc12` (stereo not drawn) [Compound 3Br-6aza-OH, (3-bromophenyl)(1H-pyrrolo[2,3-c]pyridin-3-yl)methanol] showed an MIC [1] of less than 1020 µg/mL, an MIC [2] of less than 1020 µg/mL and an MIC [3] of less than 1020 µg/mL. For the same compound, the MIC [4] was less than 1020 µg/mL, the MIC [5] was less than 1020 µg/mL and the “Rescue concentration, P. aeruginosa Imipenem (1 μg/mL)” value (P. aeruginosa) was 32 µg/mL. The “Rescue concentration, K. pneumoniae Ciprofloxacin (1 μg/mL)” value (K. pneumoniae) was 4 µg/mL, the “Rescue concentration, K. pneumoniae Imipenem (1 μg/mL)” value (K. pneumoniae) was 4 µg/mL and the “Rescue concentration … (2 μg/mL)” value (MRSA) was 1 µg/mL.
